Marks after values point to notes of the source that are not given here.
System: mechanical allodynia induced by injection of acidic saline into gastrocnemius muscle
Test: Pain suppression in animal model of fibromyalgia: mechanical allodynia induced by repeated intramuscular acidic saline, paw withdrawal threshold by von Frey filaments (up-down method)
Type: in vivo, rats (Sprague-Dawley)
Settings: for Area under the curve of the paw withdrawal threshold curve over time, compared with the vehicle group: ip
From the text: Musculoskeletal pain is a major feature of fibromyalgia. A model that is linked to musculoskeletal pain in humans has been developed by Sluka K A, which model is characterized by mechanical sensitization induced by repeated intramuscular injections of acidic saline.
This experiment evaluated the effect of the test compound on persistent mechanical allodynia, which may well represent muscle pain or tenderness observed in patients with fibromyalgia. Repeated injections of acidic saline into the gastrocnemius muscle of rats lead to mechanical allodynia due to central sensitization (Sluka K A et. al., Unilateral intramuscular injections of acidic saline produce a bilateral, long-lasting hyperalgesia, Muscle Nerve. 2001).
Male rats (Sprague-Dawley, 150-200 g, 6 weeks old, Orient Bio Co., Ltd.) were purchased and subjected to acclimatization for more than 1 week in an animal chamber. The experimental animals were maintained under conditions of light-and-darkness cycle of 12 hours, a temperature of 22 to 25° C., a relative humidity of 40 to 60%, and free access to water and food.
Mechanical allodynia was assessed by measuring the paw withdrawal threshold of the rat right hind paw using Dixon's “up-down method” (Chaplan et. al., Quantitative assessment of tactile allodynia in the rat paw. J Neurosci Methods, 1994; Dixon W J, Efficient analysis of experimental observations, Annu Rev Pharmacol Toxicol. 1980). First, the rats were placed in an acrylic box (13×25×13 cm3) located on a wire mesh installed at a height of about 35 cm from the floor and stabilized for more than 20 minutes. […] von Frey filaments with various bending forces (0.2, 0.4, 0.6, 1.0, 2.0, 4.0, 6.0, 8.0, 15.0 g) were used. Starting with a filament of 2.0 g, bending force was applied perpendicular to the sole surface. In the case of no withdrawal (avoidance response), the next higher bending force filament was applied, or, in the case of withdrawal (avoidance response), the next lower bending force filament was applied. In order to obtain at least six (6) response results, the application of filaments was proceeded four (4) more times after showing the change in withdrawal.
The baseline withdrawal (avoidance response) threshold for mechanical stimulation on the right hind paw of rats was measured. 100 μl of preservative-free acidic saline (0.9% sodium chloride, pH 4.0) was intramuscularly injected into the right gastrocnemius muscle of the rats. After 5 days, the acidic saline was intramuscularly injected again into the same region by the same method. At 7 or 8 days after the second administration of acidic saline, induction of mechanical allodynia was confirmed by measuring withdrawal (avoidance response) thresholds to mechanical stimulation on the right hind paw, and rats with a mechanical withdrawal (avoidance response) threshold of less than 4.5 g were used for the evaluation of the test drug (Sluka K A et. al., Unilateral intramuscular injections of acidic saline produce a bilateral, long-lasting hyperalgesia, Muscle Nerve. 2001).
The test compound was prepared as a solution using 30% PEG 400 and 70% distilled water on a volume basis. Each solution was administered intraperitoneally to the rats at a volume of 3 ml per kg of rat. Withdrawal (avoidance response) thresholds to mechanical stimulation were measured at 30 minutes, 1 hour, 2 hours and 4 hours after drug administration.
[% MPE=(threshold over time after drug treatment−threshold at 0 hour)/(threshold of normal group−threshold at 0 hour)×100]
The vehicle or the test compound was administered intraperitoneally at doses of 5, 10 and 20 mg/kg, and withdrawal thresholds to mechanical stimulation were measured at 30 minutes, 1 hour, 2 hours and 4 hours.

SMILES: NC(=O)O[C@@H](Cn1ncnn1)c1ccccc1Cl [Test compound]
- Withdrawal threshold of the right hind paw to mechanical stimulation (mean) (5 mg/kg ip group, 0 h (pre-dose, after acidic saline)): 2.97 g
- Withdrawal threshold of the right hind paw to mechanical stimulation (mean) (5 mg/kg ip group, baseline, prior to first injection of acidic saline (pre-dose)): 13.69 g
- Effect (%) (% MPE, percent of maximum possible effect) (5 mg/kg ip, 30 min): 10.8%
- Withdrawal threshold of the right hind paw to mechanical stimulation (mean) (5 mg/kg ip, 30 min after administration): 4.02 g
- Effect (%) (% MPE, percent of maximum possible effect) (5 mg/kg ip, 1 h): 35.6%
- Withdrawal threshold of the right hind paw to mechanical stimulation (mean) (5 mg/kg ip, 1 h after administration): 6.41^d g
- Effect (%) (% MPE, percent of maximum possible effect) (5 mg/kg ip, 2 h): 38.3%
- Withdrawal threshold of the right hind paw to mechanical stimulation (mean) (5 mg/kg ip, 2 h after administration): 6.67^e g
- Effect (%) (% MPE, percent of maximum possible effect) (5 mg/kg ip, 4 h): 10.7%
- Withdrawal threshold of the right hind paw to mechanical stimulation (mean) (5 mg/kg ip, 4 h after administration): 4.01 g
- Withdrawal threshold of the right hind paw to mechanical stimulation (mean) (10 mg/kg ip group, 0 h (pre-dose, after acidic saline)): 3.20 g
- Withdrawal threshold of the right hind paw to mechanical stimulation (mean) (10 mg/kg ip group, baseline, prior to first injection of acidic saline (pre-dose)): 14.29 g
- Effect (%) (% MPE, percent of maximum possible effect) (10 mg/kg ip, 30 min): 11.4%
- Withdrawal threshold of the right hind paw to mechanical stimulation (mean) (10 mg/kg ip, 30 min after administration): 4.27 g
- Effect (%) (% MPE, percent of maximum possible effect) (10 mg/kg ip, 1 h): 47.5%
- Withdrawal threshold of the right hind paw to mechanical stimulation (mean) (10 mg/kg ip, 1 h after administration): 7.68^e g
- Effect (%) (% MPE, percent of maximum possible effect) (10 mg/kg ip, 2 h): 43.5%
- Withdrawal threshold of the right hind paw to mechanical stimulation (mean) (10 mg/kg ip, 2 h after administration): 7.30^e g
- Effect (%) (% MPE, percent of maximum possible effect) (10 mg/kg ip, 4 h): 11.3%
- Withdrawal threshold of the right hind paw to mechanical stimulation (mean) (10 mg/kg ip, 4 h after administration): 4.26 g
- Area under the curve of the paw withdrawal threshold curve over time, compared with the vehicle group (10 mg/kg): statistically significant effects
- Withdrawal threshold of the right hind paw to mechanical stimulation (mean) (20 mg/kg ip group, 0 h (pre-dose, after acidic saline)): 2.95 g
- Withdrawal threshold of the right hind paw to mechanical stimulation (mean) (20 mg/kg ip group, baseline, prior to first injection of acidic saline (pre-dose)): 13.83 g
- Effect (%) (% MPE, percent of maximum possible effect) (20 mg/kg ip, 30 min): 44.6%
- Withdrawal threshold of the right hind paw to mechanical stimulation (mean) (20 mg/kg ip, 30 min after administration): 7.28^d g
- Effect (%) (% MPE, percent of maximum possible effect) (20 mg/kg ip, 1 h): 73.2%
- Withdrawal threshold of the right hind paw to mechanical stimulation (mean) (20 mg/kg ip, 1 h after administration): 10.04^e g
- Effect (%) (% MPE, percent of maximum possible effect) (20 mg/kg ip, 2 h): 82.2%
- Withdrawal threshold of the right hind paw to mechanical stimulation (mean) (20 mg/kg ip, 2 h after administration): 10.92^e g
- Effect (%) (% MPE, percent of maximum possible effect) (20 mg/kg ip, 4 h): 16.2%
- Withdrawal threshold of the right hind paw to mechanical stimulation (mean) (20 mg/kg ip, 4 h after administration): 4.52 g
- Area under the curve of the paw withdrawal threshold curve over time, compared with the vehicle group (20 mg/kg): statistically significant effects
- Area under the curve of the paw withdrawal threshold curve over time (5, 10 and 20 mg/kg ip, dose dependence): dose-dependent effect
- Muscle mechanical hyperalgesia in the chronic myalgia model (dose-dependent manner): significantly reduces
- Mechanical allodynia induced by repeated injections of acidic saline (intraperitoneally at doses of 5, 10 and 20 mg/kg): significantly inhibited
- Effect in the fibromyalgia disease model (overall conclusion): significant effect

— patent US20190298694A1, “Use Of Carbamate Compound For Preventing Or Treating Fibromyalgia Or Functional Syndrome Associated With Fibromyalgia” (SK BIOPHARMACEUTICALS CO., LTD., priority 2016, published 2019)
